What all share (experiment): cell-based
Test [1] concerns the target T1, TRESK (Homo sapiens, UniProt Q7Z418).
T1 sequence (Q7Z418 1-384): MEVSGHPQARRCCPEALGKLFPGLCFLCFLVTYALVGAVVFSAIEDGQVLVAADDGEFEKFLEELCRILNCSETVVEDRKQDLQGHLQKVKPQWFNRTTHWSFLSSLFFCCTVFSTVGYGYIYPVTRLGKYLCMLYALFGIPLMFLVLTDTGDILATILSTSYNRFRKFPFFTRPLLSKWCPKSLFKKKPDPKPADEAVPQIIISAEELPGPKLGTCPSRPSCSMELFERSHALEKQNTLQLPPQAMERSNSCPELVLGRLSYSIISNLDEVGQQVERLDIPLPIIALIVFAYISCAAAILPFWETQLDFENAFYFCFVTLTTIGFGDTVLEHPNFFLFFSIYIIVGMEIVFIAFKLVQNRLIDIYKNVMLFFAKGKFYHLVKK

Test [2] addresses T2, EAG1 (Homo sapiens, UniProt O95259).
T2 sequence (O95259 1-989): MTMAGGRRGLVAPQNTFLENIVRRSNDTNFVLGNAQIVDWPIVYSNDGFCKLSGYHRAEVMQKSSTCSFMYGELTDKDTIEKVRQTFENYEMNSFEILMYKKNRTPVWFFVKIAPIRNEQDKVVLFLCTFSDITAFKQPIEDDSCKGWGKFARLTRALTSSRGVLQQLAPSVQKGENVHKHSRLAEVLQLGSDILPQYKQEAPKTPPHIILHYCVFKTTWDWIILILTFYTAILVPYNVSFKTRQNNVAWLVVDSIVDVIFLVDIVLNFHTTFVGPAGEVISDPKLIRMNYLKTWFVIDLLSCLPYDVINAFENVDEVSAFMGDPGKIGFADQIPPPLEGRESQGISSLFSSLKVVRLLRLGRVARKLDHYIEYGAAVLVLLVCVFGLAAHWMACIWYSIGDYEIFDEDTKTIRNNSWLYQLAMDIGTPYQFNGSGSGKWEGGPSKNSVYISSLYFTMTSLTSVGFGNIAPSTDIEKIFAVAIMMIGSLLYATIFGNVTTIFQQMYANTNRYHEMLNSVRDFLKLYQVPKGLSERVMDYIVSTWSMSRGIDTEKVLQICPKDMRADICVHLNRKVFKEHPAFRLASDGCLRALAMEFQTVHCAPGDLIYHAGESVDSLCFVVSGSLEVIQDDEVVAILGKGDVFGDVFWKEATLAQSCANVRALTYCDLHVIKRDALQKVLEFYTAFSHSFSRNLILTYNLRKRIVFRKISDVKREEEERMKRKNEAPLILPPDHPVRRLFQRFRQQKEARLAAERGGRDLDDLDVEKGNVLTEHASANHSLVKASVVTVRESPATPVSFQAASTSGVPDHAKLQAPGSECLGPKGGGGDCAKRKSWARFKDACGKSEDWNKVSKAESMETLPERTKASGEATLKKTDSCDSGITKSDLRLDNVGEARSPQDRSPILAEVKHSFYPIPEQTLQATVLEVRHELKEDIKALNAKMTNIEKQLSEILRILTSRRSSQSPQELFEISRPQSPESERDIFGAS

For test [3], the target named is hERG (Homo sapiens, UniProt Q12809).
Test [4] has as its target TRPV4 (Homo sapiens, UniProt Q9HBA0).
Test [5] has as its target Nav1.5 (Homo sapiens, UniProt Q14524).
The target of test [6] is T3, TRPC6 (Homo sapiens, UniProt Q9Y210).
T3 sequence (Q9Y210 1-931): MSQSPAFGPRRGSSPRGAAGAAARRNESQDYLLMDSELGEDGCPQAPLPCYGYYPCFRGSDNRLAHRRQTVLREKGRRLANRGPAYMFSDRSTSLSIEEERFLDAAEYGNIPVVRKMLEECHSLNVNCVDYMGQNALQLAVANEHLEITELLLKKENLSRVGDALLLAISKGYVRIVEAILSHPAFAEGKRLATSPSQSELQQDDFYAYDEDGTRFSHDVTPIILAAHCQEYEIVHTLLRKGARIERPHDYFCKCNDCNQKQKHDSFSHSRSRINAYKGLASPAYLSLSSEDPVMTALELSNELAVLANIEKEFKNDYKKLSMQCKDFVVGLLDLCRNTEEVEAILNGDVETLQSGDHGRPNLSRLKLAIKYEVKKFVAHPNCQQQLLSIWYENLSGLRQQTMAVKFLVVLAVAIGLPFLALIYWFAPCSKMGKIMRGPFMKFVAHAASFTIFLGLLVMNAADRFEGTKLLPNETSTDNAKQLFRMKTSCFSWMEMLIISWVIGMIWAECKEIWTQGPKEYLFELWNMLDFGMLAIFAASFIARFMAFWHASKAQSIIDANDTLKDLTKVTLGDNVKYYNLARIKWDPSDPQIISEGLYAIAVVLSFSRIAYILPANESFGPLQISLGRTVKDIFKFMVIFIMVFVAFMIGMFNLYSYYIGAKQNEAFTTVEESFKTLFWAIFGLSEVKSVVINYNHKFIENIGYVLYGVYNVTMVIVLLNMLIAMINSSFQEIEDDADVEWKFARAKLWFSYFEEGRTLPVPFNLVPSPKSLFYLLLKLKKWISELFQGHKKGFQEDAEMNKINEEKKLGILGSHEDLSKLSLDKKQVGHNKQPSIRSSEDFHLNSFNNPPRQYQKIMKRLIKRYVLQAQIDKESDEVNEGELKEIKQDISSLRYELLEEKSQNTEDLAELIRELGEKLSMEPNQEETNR

Test [7] concerns the target T4, TWIK2 (Homo sapiens, UniProt Q9Y257).
T4 sequence (Q9Y257 1-313): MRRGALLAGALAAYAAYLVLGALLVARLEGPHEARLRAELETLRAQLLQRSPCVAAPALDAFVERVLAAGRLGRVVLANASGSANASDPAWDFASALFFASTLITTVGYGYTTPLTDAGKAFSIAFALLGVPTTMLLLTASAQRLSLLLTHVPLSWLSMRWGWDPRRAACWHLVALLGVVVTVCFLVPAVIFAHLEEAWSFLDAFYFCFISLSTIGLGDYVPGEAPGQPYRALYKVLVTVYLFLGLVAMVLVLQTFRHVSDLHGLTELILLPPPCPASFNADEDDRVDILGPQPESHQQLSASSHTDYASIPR

Consider one compound from article doi:10.1101/706168v1 (biorxiv, 2019).

TRPV4, sequence (Q9HBA0 whole entry): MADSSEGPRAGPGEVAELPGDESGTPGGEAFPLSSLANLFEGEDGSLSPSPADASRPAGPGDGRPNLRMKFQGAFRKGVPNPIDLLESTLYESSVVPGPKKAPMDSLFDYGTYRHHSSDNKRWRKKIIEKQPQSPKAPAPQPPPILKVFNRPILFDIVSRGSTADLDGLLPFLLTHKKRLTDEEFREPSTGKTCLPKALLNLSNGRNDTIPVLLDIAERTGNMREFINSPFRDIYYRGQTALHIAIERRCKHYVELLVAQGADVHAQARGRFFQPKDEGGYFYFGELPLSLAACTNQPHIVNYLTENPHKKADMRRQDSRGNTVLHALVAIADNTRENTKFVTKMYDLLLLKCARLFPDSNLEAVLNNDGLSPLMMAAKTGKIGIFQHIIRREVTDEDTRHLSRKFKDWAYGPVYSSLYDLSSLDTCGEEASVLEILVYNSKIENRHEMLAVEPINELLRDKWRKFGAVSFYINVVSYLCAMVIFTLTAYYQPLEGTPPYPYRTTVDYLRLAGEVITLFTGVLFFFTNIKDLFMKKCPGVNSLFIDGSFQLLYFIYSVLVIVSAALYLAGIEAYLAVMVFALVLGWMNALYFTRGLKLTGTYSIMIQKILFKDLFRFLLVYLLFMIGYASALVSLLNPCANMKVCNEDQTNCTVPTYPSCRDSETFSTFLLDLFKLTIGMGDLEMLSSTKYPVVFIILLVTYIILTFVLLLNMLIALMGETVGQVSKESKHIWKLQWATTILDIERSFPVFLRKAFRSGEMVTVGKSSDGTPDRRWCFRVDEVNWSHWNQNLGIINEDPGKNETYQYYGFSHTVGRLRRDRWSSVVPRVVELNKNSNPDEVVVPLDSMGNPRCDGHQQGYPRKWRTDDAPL
Nav1.5, sequence (Q14524 whole entry): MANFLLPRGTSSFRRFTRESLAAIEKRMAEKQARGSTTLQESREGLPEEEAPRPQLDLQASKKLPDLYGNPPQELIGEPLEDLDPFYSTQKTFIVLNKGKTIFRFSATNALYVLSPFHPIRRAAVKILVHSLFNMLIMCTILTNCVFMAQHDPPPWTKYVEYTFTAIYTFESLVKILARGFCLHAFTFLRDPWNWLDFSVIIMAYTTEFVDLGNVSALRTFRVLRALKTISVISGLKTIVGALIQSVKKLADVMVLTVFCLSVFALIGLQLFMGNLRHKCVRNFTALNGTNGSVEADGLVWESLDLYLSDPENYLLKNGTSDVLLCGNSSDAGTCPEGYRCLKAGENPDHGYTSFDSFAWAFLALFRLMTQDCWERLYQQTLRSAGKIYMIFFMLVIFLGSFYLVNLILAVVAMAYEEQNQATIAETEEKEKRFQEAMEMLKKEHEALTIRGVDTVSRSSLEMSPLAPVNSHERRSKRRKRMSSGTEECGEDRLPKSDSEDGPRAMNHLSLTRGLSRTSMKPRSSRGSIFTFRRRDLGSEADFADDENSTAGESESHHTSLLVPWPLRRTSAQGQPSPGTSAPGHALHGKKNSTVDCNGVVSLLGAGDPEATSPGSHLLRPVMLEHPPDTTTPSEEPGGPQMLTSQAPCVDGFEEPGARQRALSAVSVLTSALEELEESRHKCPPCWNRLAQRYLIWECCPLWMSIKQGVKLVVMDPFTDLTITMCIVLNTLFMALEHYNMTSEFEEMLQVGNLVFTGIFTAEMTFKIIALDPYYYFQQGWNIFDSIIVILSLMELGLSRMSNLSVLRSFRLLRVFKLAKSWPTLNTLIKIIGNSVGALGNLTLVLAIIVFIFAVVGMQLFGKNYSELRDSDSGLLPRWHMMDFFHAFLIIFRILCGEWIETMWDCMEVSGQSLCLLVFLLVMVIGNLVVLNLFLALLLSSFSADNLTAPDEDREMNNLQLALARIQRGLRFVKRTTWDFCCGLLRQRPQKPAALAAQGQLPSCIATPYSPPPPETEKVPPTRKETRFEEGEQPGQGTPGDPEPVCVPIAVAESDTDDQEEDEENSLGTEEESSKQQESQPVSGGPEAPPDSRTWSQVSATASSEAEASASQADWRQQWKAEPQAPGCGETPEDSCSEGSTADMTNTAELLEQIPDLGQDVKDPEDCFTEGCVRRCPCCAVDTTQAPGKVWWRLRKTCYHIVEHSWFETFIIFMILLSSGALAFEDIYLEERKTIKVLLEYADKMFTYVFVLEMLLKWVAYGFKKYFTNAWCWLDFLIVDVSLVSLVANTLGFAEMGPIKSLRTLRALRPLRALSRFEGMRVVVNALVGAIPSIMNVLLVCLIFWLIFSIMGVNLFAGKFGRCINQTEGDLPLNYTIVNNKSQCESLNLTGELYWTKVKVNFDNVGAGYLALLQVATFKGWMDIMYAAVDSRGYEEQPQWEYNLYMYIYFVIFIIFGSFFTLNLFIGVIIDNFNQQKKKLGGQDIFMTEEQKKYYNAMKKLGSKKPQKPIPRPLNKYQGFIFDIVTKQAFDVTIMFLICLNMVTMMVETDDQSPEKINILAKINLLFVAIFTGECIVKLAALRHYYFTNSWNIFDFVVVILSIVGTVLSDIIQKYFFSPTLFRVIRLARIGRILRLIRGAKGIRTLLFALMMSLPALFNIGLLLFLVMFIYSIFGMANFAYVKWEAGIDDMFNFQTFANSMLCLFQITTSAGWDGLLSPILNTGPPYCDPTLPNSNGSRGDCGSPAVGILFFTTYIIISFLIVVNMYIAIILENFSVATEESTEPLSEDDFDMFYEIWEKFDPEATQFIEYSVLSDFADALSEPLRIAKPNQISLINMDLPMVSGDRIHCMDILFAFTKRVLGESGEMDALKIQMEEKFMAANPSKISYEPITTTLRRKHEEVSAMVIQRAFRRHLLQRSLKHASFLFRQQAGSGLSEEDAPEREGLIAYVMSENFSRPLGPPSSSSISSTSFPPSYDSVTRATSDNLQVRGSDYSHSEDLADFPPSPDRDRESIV
hERG, sequence (Q12809 whole entry): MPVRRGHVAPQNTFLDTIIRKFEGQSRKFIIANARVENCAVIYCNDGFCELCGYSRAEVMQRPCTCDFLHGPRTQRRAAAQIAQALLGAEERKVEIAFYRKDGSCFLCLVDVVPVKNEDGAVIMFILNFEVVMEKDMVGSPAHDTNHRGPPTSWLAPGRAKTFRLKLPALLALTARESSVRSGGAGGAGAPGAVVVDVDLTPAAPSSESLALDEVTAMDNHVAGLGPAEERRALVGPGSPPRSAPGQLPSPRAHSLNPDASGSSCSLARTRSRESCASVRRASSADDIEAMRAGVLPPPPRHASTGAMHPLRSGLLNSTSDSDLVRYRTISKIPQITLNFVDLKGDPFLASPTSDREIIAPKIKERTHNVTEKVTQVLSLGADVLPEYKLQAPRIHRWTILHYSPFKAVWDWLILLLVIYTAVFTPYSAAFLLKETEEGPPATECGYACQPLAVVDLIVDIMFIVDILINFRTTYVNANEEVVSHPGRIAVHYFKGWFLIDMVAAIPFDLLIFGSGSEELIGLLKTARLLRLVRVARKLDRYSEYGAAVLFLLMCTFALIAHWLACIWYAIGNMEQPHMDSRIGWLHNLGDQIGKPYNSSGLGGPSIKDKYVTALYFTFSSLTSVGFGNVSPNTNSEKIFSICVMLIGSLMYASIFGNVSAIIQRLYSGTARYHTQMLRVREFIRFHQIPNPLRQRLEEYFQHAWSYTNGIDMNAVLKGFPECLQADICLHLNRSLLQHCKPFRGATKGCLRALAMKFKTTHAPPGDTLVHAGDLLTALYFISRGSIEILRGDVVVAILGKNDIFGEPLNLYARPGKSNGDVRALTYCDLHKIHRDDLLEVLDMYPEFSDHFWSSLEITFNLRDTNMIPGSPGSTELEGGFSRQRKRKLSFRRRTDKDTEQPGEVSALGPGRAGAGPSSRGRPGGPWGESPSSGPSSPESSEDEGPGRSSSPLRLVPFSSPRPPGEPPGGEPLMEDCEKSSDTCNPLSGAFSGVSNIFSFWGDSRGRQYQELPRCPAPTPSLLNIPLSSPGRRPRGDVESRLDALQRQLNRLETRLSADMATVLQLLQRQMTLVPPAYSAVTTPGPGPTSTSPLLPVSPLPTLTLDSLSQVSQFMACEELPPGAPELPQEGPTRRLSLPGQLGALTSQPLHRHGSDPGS

The term IC50 denotes the concentration at which inhibition is half-maximal. As to `O=C(c1ccccc1F)N1CCN(Cc2c(-c3ccc(Br)cc3)nc3ccccn23)CC1` [BAY 1000493, (4-{[2-(4-bromophenyl)imidazo[1,2-a]pyridin-3-yl]methyl}vpiperazin-1-yl)(2-fluorophenyl)methanone], the IC50 in test [1] is above 30 µM; in test [2] it was above 30 µM; in test [3], 2.4 µM; in test [4], above 30 µM; in test [5], above 30 µM; in test [6], above 30 µM. The IC50 in test [7] was above 30 µM.
